Measurements published in PMC10955247, “In vivo screening for toxicity-modulating drug interactions identifies antagonism that protects against ototoxicity in zebrafish” (Frontiers in Pharmacology, 2024).
Structures can show the parent of a compound that is named as a salt.

Tested on: zebrafish lateral line hair cells
Assay: Lateral line hair cell intracellular calcium imaging and cell death
Format: in vivo
Source text: For calcium testing, zebrafish expressing HC-specific GCaMP targeted to the inner mitochondrial matrix were crossed with fish expressing a HC specific calcium indicator to create double-transgenic embryos (Tg (myo6b:mitoGCaMP3;myo6b:cytoRGECO), Table 1) with both green fluorescent mitochondrial calcium and red fluorescent cytosolic calcium indicators, then raised as described previously ([McQuate et al., 2023]). Zebrafish embryos were collected from 2-h spawning periods and raised in Petri dishes in embryo medium (EM: 14.97 mM NaCl, 500 μM KCl, 42 µM Na2HPO4, 150 µM KH2PO4, 1 mM CaCl2 dehydrate, 1 mM MgSO4, 0.714 mM NaHCO3, pH 7.2) at a density of 60 larvae per […] dish, in a dark 28.5°C incubator until 5 dpf. Larvae were screened for indicator expression at 4 dpf.
Calcium imaging was performed using an inverted Marianas spinning disk confocal system (Intelligent Imaging Innovations, 3i) with an Evolve 10 MHz EMCCD camera (Photometrics) and a Zeiss C-Apochromat 63x/1.2 numerical aperture water objective. Larvae were 5-6 dpf at the time of imaging. Larvae were first anesthetized in embryo media containing 800 µM tricaine, then stabilized on their sides under a harp, so that posterior neuromasts were exposed to the surrounding media. Imaging was performed at ambient temperature, approximately 25°C. GCaMP fluorescence was acquired with a 488 nm laser and 535/30 emission filter, with an exposure time of 100 ms, and RGECO fluorescence was acquired with a 561 nm laser and 617/73 emission filter and exposure time of 200 ms. Images were taken every 2 minutes as z-stacks through neuromasts in 2 µm steps. Neomycin and azithromycin were dissolved as a 4X stock in EM (described in Section 2.1: Zebrafish Husbandry), then added to the bath to achieve final working concentration after a 10-min baseline. Imaging of neuromasts continued for 50 min. Images were analyzed in ImageJ. Mean fluorescence intensity was measured for ROIs of individual randomly selected HCs (2–3 HCs per NM, see example ROI in Figure 4). For each HC, values were normalized to the average of baseline using Microsoft Excel.

NC[C@@H]1O[C@H](O[C@H]2[C@@H](O)[C@H](O[C@@H]3[C@@H](O)[C@H](N)C[C@H](N)[C@H]3O[C@H]3O[C@H](CN)[C@@H](O)[C@H](O)[C@H]3N)O[C@@H]2CO)[C@H](N)[C@@H](O)[C@@H]1O [Neomycin, Neomycin sulfate hydrate]
HC mitochondrial and cytoplasmic calcium response (NEO 50 µM, AZM 190 µM, mitoGCaMP3, cytoRGECO larvae): induced an increase in mitochondrial
HCs that went on to die, of those analyzed (NEO alone 50 µM): 66%
cells that went on to die (drug alone, calcium imaging): 14/21
